Data from US7122173B2, “Agent for the treatment of bladder irritative symptoms accompanied by benign prostatic hyperplasia” (Kyowa Hakko Kogyo Co., Ltd., priority 2001, dated 2006).

Experiments:
[1] = system: delayed rectifier K^+ channel; assay: Voltage clamp, delayed rectifier K+ currents (HP −20 mV) in unidentified DRG neurons; assay type: cell-based, rat; conditions: for K+ current HP: −20 mV (delayed rectifier), relative value (before drug = 1): unidentified DRG neurons
Description: (§1) Experiments were performed on adult female Sprague Dawley rats. First and second series of the experiments were performed, respectively, in unidentified DRG neurons and a specific population of DRG neurons innervating the urinary bladder. The population of DRG neurons that innervate the urinary bladder were labeled by retrograde axonal transport of the fluorescent dye, Fast Blue (4% w/v) (Polyloy, Gross Umstadt, Germany), injected into the wall of the bladder in halothane-anesthetized animals 7 days before the dissociation. The dye was injected with a 28 gauge needle at three to six sites on the dorsal surface of the organ (5–6 μL per site, total volume of 20–30 μL). Each injection site was washed with saline to minimize contamination of adjacent organs with the dye.
Freshly dissociated neurons from DRG were prepared from halothane-anesthetized animals. L6 and S1 DRG were dissected from animals and then dissociated in a shaking bath for 25 minutes at 35° C. with 5 mL DMEM (Sigma) containing 0.3 mg/mL trypsin (Type 3, Sigma), 1 mg/mL collagenase (Type 1, Sigma), and 0.1 mg/mL deoxyribonuclease (Type 4, Sigma). Trypsin inhibitor (Type 2a, Sigma) was then added thereto to neutralize the activity of trypsin. Individual DRG cell bodies were isolated by trituration and then plated on a poly-L-lysine-coated 35 mm Petri dishes.
Dye-labeled primary afferent neurons that innervate the urinary bladder were identified using an inverted phase-contrast microscope (Nikon, Tokyo, Japan) with fluorescent attachments (UV-1A filter; excitation wavelength, 365 nm). Gigaohm-seal whole-cell recordings were performed at room temperature (20–22° C.) on each labeled neuron in a culture dish that usually contained three to seven labeled cells among a few hundred unlabeled neurons. The internal solution contained (in mmol/L): KCl 140, CaCl2 1, MgCl2 2, EGTA 11, HEPES 10, Mg-ATP 2, and Tris-GTP 0.4 adjusted to pH 7.4 with KOH. Patch electrodes had resistances of 1–4 M Ω when filled with the internal solution. Neurons were superfused at a flow rate of 1.5 mL/minutes with an external solution containing (in mmol/L): NaCl 150, KCl 5, CaCl2 2.5, MgCl2 1, HEPES 10, and D-glucose 10, adjusted to pH 7.4 with NaOH. All recordings were made with an Axopatch-1D patch-clamp amplifier (Axon Instruments, Foster City, Calif.), and data were acquired and analyzed by PCLAMP software (Axon Instruments).
In voltage-clamp recordings, outward K^+ currents and inward Na^+ currents were measured. For the isolation of K^+ currents, the external solution was changed to one containing (in mmol/L): choline-Cl 150, KOH 5, CaCl2 0.03, HEPES 10, Mg(OH)2 3, and D-glucose 10, adjusted to pH 7.4 with HCl.
In first series of experiments using unidentified DRG neurons, outward K^+ currents were evoked by voltage steps to +60 mV, 800 ms long from a holding potentials of −90 mV, this was followed by a 1-second conditioning pre-pulse to −20 mV followed by a second pulse to +60 mV, identical to the first in the sequence. In the second series of experiments using Fast Blue-labeled bladder afferent neurons, slowly-inactivating A-type K^+ currents were isolated by subtraction of outward K^+ currents activated from a holding potential of −40 mV (on the condition of inactivation of the majority of slowly-inactivating A-type K^+ currents) from those activated from a holding potential of −120 mV (on the condition of full activation of slowly-inactivating A-type K^+ currents). A compound was added cumulatively, starting with a lower concentration. Currents were measured at the maximum (peak) and normalized to control (before addition of the compound).
The currents at a holding potential (HP) of −90 mV are results of the measurement of slowly-inactivating A-type K^+ currents, and the currents at an HP value of −20 mV are results of the measurement of delayed rectifier K^+ currents. […]

[2] = system: slowly-inactivating A-type K^+ channel; assay: Voltage clamp, slowly-inactivating A-type K+ currents in Fast Blue-labeled capsaicin-sensitive bladder afferent neurons; assay type: cell-based, rat; conditions: Compound 1 1.0 × 10^−6 mol/L
Description: as §1
Freshly dissociated neurons from DRG were prepared from halothane-anesthetized animals. […]
Dye-labeled primary afferent neurons that innervate the urinary bladder were identified using an inverted phase-contrast microscope (Nikon, Tokyo, Japan) with fluorescent attachments (UV-1A filter; excitation wavelength, 365 nm). […] All recordings were made with an Axopatch-1D patch-clamp amplifier (Axon Instruments, Foster City, Calif.), and data were acquired and analyzed by PCLAMP software (Axon Instruments).
In voltage-clamp recordings, outward K^+ currents and inward Na^+ currents were measured. […]

C[C@](O)(C(=O)Nc1cccc2c1C(=O)c1sccc1CS2(=O)=O)C(F)(F)F [Compound 1, (S)-(+)-N-(5,5-dioxido-10-oxo-4,10-dihydrothieno[3,2-c][1]benzothiepin-9-yl)-3,3,3-trifluoro-2-hydroxy-2-methylpropanamide]
K+ current HP: −20 mV, relative value (before drug = 1) ([1]; Compound 1 1.0 × 10^−5 mol/L, in the presence of 5 μmol/L verapamil): 1.00 ± 0.02 | K+ current HP: −20 mV, relative value (before drug = 1) ([1]; Compound 1 1.0 × 10^−5 mol/L, in the presence of 20 mmol/L tetraethylammonium): 1.01 ± 0.02 | K+ current HP: −20 mV (delayed rectifier), relative value (before drug = 1) ([1]; Compound 1 1.0 × 10^−5 mol/L): 0.88 ± 0.07 | K+ current HP: −20 mV, relative value (before drug = 1) ([1]; Compound 1 1.0 × 10^−6 mol/L, in the presence of 5 μmol/L verapamil): 1.00 ± 0.01 | K+ current HP: −20 mV, relative value (before drug = 1) ([1]; Compound 1 1.0 × 10^−6 mol/L, in the presence of 20 mmol/L tetraethylammonium): 1.00 ± 0.00 | K+ current HP: −20 mV (delayed rectifier), relative value (before drug = 1) ([1]; Compound 1 1.0 × 10^−6 mol/L): 1.00 ± 0.02 | K+ current HP: −20 mV, relative value (before drug = 1) ([1]; Compound 1 1.0 × 10^−7 mol/L, in the presence of 5 μmol/L verapamil): 1.00 ± 0.01 | K+ current HP: −20 mV, relative value (before drug = 1) ([1]; Compound 1 1.0 × 10^−7 mol/L, in the presence of 20 mmol/L tetraethylammonium): 0.99 ± 0.02 | K+ current HP: −20 mV (delayed rectifier), relative value (before drug = 1) ([1]; Compound 1 1.0 × 10^−7 mol/L): 1.02 ± 0.01 | K+ current HP: −20 mV (delayed rectifier), relative value (before drug = 1) ([1]; Compound 1 1.0 × 10^−8 mol/L): 0.98 ± 0.04 | K+ current HP: −20 mV (delayed rectifier), relative value (before drug = 1) ([1]; Compound 1 2.5 × 10^−8 mol/L): 1.01 ± 0.03 | K+ current HP: −20 mV, relative value (before drug = 1) ([1]; Compound 1 5.0 × 10^−4 mol/L, in the presence of 5 μmol/L verapamil): 0.83 ± 0.06 | K+ current HP: −20 mV, relative value (before drug = 1) ([1]; Compound 1 5.0 × 10^−4 mol/L, in the presence of 20 mmol/L tetraethylammonium): 0.25 ± 0.04 | K+ current HP: −20 mV, relative value (before drug = 1) ([1]; Compound 1 5.0 × 10^−4 mol/L, in the presence of 60 mmol/L tetraethylammonium): 0.54 ± 0.02 | K+ current HP: −20 mV, relative value (before drug = 1) ([1]; Compound 1 5.0 × 10^−5 mol/L, in the presence of 5 μmol/L verapamil): 0.98 ± 0.01 | K+ current HP: −20 mV, relative value (before drug = 1) ([1]; Compound 1 5.0 × 10^−5 mol/L, in the presence of 20 mmol/L tetraethylammonium): 0.84 ± 0.06 | K+ current HP: −20 mV, relative value (before drug = 1) ([1]; Compound 1 5.0 × 10^−5 mol/L, in the presence of 60 mmol/L tetraethylammonium): 0.95 ± 0.03 | K+ current HP: −20 mV (delayed rectifier), relative value (before drug = 1) ([1]; Compound 1 5.0 × 10^−5 mol/L): 0.81 ± 0.08 | K+ current HP: −20 mV, relative value (before drug = 1) ([1]; Compound 1 5.0 × 10^−6 mol/L, in the presence of 5 μmol/L verapamil): 1.01 ± 0.01 | K+ current HP: −20 mV, relative value (before drug = 1) ([1]; Compound 1 5.0 × 10^−6 mol/L, in the presence of 20 mmol/L tetraethylammonium): 0.98 ± 0.01 | K+ current HP: −20 mV, relative value (before drug = 1) ([1]; Compound 1 5.0 × 10^−6 mol/L, in the presence of 60 mmol/L tetraethylammonium): 0.97 ± 0.02 | K+ current HP: −20 mV, relative value (before drug = 1) ([1]; Compound 1 5.0 × 10^−7 mol/L, in the presence of 5 μmol/L verapamil): 1.00 ± 0.01 | K+ current HP: −20 mV, relative value (before drug = 1) ([1]; Compound 1 5.0 × 10^−7 mol/L, in the presence of 20 mmol/L tetraethylammonium): 1.01 ± 0.01 | K+ current HP: −20 mV, relative value (before drug = 1) ([1]; Compound 1 5.0 × 10^−7 mol/L, in the presence of 60 mmol/L tetraethylammonium): 0.97 ± 0.03 | K+ current HP: −20 mV (delayed rectifier), relative value (before drug = 1) ([1]; Compound 1 5.0 × 10^−7 mol/L): 1.01 ± 0.02 | K+ current HP: −20 mV, relative value (before drug = 1) ([1]; Compound 1 5.0 × 10^−8 mol/L, in the presence of 5 μmol/L verapamil): 1.00 ± 0.00 | K+ current HP: −20 mV, relative value (before drug = 1) ([1]; Compound 1 5.0 × 10^−8 mol/L, in the presence of 20 mmol/L tetraethylammonium): 0.99 ± 0.01 | K+ current HP: −20 mV, relative value (before drug = 1) ([1]; Compound 1 5.0 × 10^−8 mol/L, in the presence of 60 mmol/L tetraethylammonium): 1.00 ± 0.01 | K+ current HP: −20 mV (delayed rectifier), relative value (before drug = 1) ([1]; Compound 1 5.0 × 10^−8 mol/L): 1.00 ± 0.01 | K+ current HP: −20 mV, relative value (before drug = 1) ([1]; Compound 1 5.0 × 10^−9 mol/L, in the presence of 20 mmol/L tetraethylammonium): 0.99 ± 0.00 | K+ current HP: −20 mV (delayed rectifier), relative value (before drug = 1) ([1]; Compound 1 5.0 × 10^−9 mol/L): 0.98 ± 0.02 | A-type IK (HP: −120 mV) − (HP: −40 mV), normalized to control [2]: 1.26 ± 0.03
